Tested on: hepatocytes
Assay: Seq-Well scRNA-Seq of hepatocytes after APAP overdose (signature scores, DEG vs untreated)
Type: in vivo, mouse

## CC(=O)Nc1ccc(O)cc1 [APAP, acetaminophen]
A6
  S100a9 pct.1: 0.399
  Saa4 pct.1: 0.437
  Sat1 pct.1: 0.47
  Scp2 pct.1: 0.866
  Sdc4 pct.1: 0.909
  Sec1412 pct.1: 0.484
  Selenbp2 pct.1: 0.609
  Serpina1a pct.1: 0.914
  Serpina3m pct.1: 0.85
  Serpina3n pct.1: 0.747
  Slc16a6 pct.1: 0.47
  Slc22a1 pct.1: 0.36
  Slc25a47 pct.1: 0.869
  Slc39a14 pct.1: 0.678
  Sod1 pct.1: 0.931
  Sqstm1 pct.1: 0.859
  Srgn pct.1: 0.284
  Srxn1 pct.1: 0.821
  St3gal1 pct.1: 0.473
  St3gal5 pct.1: 0.706
  Stat3 pct.1: 0.604
  Stk40 pct.1: 0.382
  Tiparp pct.1: 0.346
  Tmem205 pct.1: 0.695
  Tmsb4x pct.1: 0.332
  Tnfrsf1a pct.1: 0.508
  Tnfrsf12a pct.1: 0.623
  Tra2a pct.1: 0.337
  Trp53inp1 pct.1: 0.637
  Ttc36 pct.1: 0.768
  Ttr pct.1: 0.993
  Tubb2a pct.1: 0.618
  Tubb6 pct.1: 0.368
  Txnrd1 pct.1: 0.838
  Tyrobp pct.1: 0.189
  Ubc pct.1: 0.573
  Ugdh pct.1: 0.721
  Ugt2b5 pct.1: 0.847
  Ugt2b36 pct.1: 0.745
  Uox pct.1: 0.905
  Upp2 pct.1: 0.274
  Uqcr11 pct.1: 0.606
  Urah pct.1: 0.525
  Wbp1l pct.1: 0.697
  Xbp1 pct.1: 0.692
  Ywhag pct.1: 0.518
  mmu-mir-6240 pct.1: 0.413
  mt-Co2 pct.1: 0.2
  mt-Nd1 pct.1: 0.983
  mt-Nd4 pct.1: 0.964
  n-R5-8s1 pct.1: 0.308
A6 vs UT
  2-Mar avg_logFC: −0.5599
  0610005C13Rik avg_logFC: −0.4251
  0610005C13Rik pct.1: 0.427
  0610007P14Rik A6logFC: −0.257
  1110001J03Rik avg_logFC: −0.4328
  1110001J03Rik pct.1: 0.215
  1110058L19Rik A6logFC: −0.2581
  1500011K16Rik avg_logFC: −0.3296
  1500011K16Rik pct.1: 0.095
  1600014C10Rik avg_logFC: −0.4982
  1600014C10Rik pct.1: 0.167
  1700017B05Rik avg_logFC: 0.3307
  1700017B05Rik pct.1: 0.255
  2010003K11Rik avg_logFC: 0.5884
  2410015M20Rik avg_logFC: −0.4021
  2410015M20Rik pct.1: 0.344
  2810007J24Rik avg_logFC: −0.9143
  2810428I15Rik avg_logFC: −0.2631
  2810428I15Rik pct.1: 0.2
  4931406C07Rik A6logFC: −0.2544
  4931406C07Rik avg_logFC: −0.2544
  4931406C07Rik pct.1: 0.616
  4932438A13Rik A6logFC: 0.2879
  4932438A13Rik avg_logFC: 0.2879
  4932438A13Rik pct.1: 0.329
  8430408G22Rik avg_logFC: −0.5021
  2810428115Rik A6logFC: −0.2631
  Aadac avg_logFC: −0.62
  Aadat A6logFC: −0.3186
  Aass avg_logFC: 0.4775
  Abca1 avg_logFC: 0.7245
  Abcb11 A6logFC: −0.2618
  Abcb11 avg_logFC: −0.2618
  Abcb11 pct.1: 0.618
  Abcc2 A6logFC: 0.2897
  Abcd3 A6logFC: −0.2718
  Abce1 A6logFC: 0.28
  Abce1 avg_logFC: 0.28
  Abce1 pct.1: 0.437
  Abcf1 A6logFC: 0.3032
  Abcf1 avg_logFC: 0.3032
  Abcf1 pct.1: 0.458
  Abcg2 A6logFC: −0.2809
  Abcg2 avg_logFC: −0.2809
  Abcg2 pct.1: 0.294
  Abhd2 avg_logFC: 0.4844
  Acaa1a A6logFC: −0.3018
  Acaa1a avg_logFC: −0.3018
  Acaa1a pct.1: 0.475
  Acaa1b avg_logFC: −0.7328
  Acads A6logFC: −0.3242
  Acat3 A6logFC: −0.3115
  Acat3 avg_logFC: −0.3115
  Acat3 pct.1: 0.427
  Acot13 A6logFC: −0.2886
  Acsl1 avg_logFC: −0.3434
  Acsl1 pct.1: 0.752
  Acsl4 avg_logFC: 0.2985
  Acsl4 pct.1: 0.427
  Acsm1 avg_logFC: −0.3692
  Acsm1 pct.1: 0.527
  Acsm5 A6logFC: −0.2614
  Acsm5 avg_logFC: −0.2614
  Acsm5 pct.1: 0.236
  Actr3 A6logFC: 0.276
  Actr3 avg_logFC: 0.276
  Actr3 pct.1: 0.36
  Acy3 avg_logFC: −0.3137
  Acy3 pct.1: 0.131
  Adamts1 avg_logFC: 0.2826
  Adamts1 pct.1: 0.2
  Adck3 avg_logFC: −0.8761
  Adh1 avg_logFC: −1.255
  Adh4 avg_logFC: −0.5269
  Adh5 avg_logFC: −0.4914
  Adh5 pct.1: 0.649
  Adipor2 avg_logFC: −0.4738
  Adipor2 pct.1: 0.578
  Aes A6logFC: −0.2642
  Aes avg_logFC: −0.2642
  Aes pct.1: 0.535
  Aff4 avg_logFC: 0.6163
  Aff4 pct.1: 0.537
  Agmat avg_logFC: −0.4718
  Agmat pct.1: 0.339
  Agpat2 A6logFC: −0.2982
  Agpat9 avg_logFC: 0.327
  Agxt A6logFC: −0.2584
  Agxt avg_logFC: −0.2584
  Agxt pct.1: 0.601
  Akap13 avg_logFC: 0.4953
  Akap13 pct.1: 0.406
  Akr1c6 avg_logFC: −1.586
  Akr1c14 avg_logFC: −0.5186
  Akr1c14 pct.1: 0.413
  Akr1c20 avg_logFC: −0.5542
  Akr1d1 avg_logFC: −0.2789
  Akr1d1 pct.1: 0.332
  Akr1e1 A6logFC: −0.2582
  Alad avg_logFC: −0.4206
  Alad pct.1: 0.286
  Alb avg_logFC: 0.4203
  Alcam A6logFC: 0.3238
  Alcam avg_logFC: 0.3238
  Alcam pct.1: 0.396
  Aldh1a1 avg_logFC: −0.4788
  Aldh3a2 avg_logFC: −0.8342
  Aldh4a1 A6logFC: −0.2907
  Aldh4a1 avg_logFC: −0.2907
  Aldh4a1 pct.1: 0.425
  Aldh8a1 avg_logFC: −0.6837
  Aldob avg_logFC: 0.3153
  Aldob pct.1: 0.998
  Amacr avg_logFC: −0.4136
  Amacr pct.1: 0.294
  Anapc13 A6logFC: −0.3642
  Ang avg_logFC: −0.6629
  Anxa5 A6logFC: 0.3654
  Apoa2 avg_logFC: −0.5428
  Apoa4 avg_logFC: 1.368
  Apob avg_logFC: 0.5802
  Apobec1 avg_logFC: 0.3051
  Apobec1 pct.1: 0.239
  Apoc1 avg_logFC: −0.8713
  Apoc3 avg_logFC: −0.7688
  Apoe avg_logFC: −0.369
  Apof A6logFC: −0.2522
  Apof avg_logFC: −0.2522
  Apof pct.1: 0.759
  Apoh avg_logFC: −0.2623
  Apoh pct.1: 0.924
  Apol7a avg_logFC: −0.4923
  App avg_logFC: 0.3618
  App pct.1: 0.315
  Aqp9 A6logFC: −0.3109
  Arg1 avg_logFC: 0.3179
  Arg1 pct.1: 0.983
  Arhgap5 avg_logFC: 0.264
  Arhgap5 pct.1: 0.506
  Arhgdia A6logFC: 0.2563
  Arhgdia avg_logFC: 0.2563
  Arhgdia pct.1: 0.317
  Arhgef12 avg_logFC: 0.5908
  Arl4d avg_logFC: −0.5072
  Arpc1b A6logFC: 0.2597
  Arpc1b avg_logFC: 0.2597
  Arpc1b pct.1: 0.263
  Asgr1 avg_logFC: −0.3857
  Asgr1 pct.1: 0.656
  Ash1l avg_logFC: 0.2657
  Ash1l pct.1: 0.301

From patent US20230053540A1, “TREATMENT OF LIVER INJURY” (Massachusetts Institute of Technology, priority 2019, published 2023)
